In experiment [1] the target is T1, Bst-II DNA polymerase (Geobacillus stearothermophilus, UniProt P52026, A297E/A304V/A338V/A377V/A406D/A433V/A505S/D300E/D309E/D325E/D402N/D540E/D696E/D751E/E459Q/E464D/E476K/E631P/E632L/E667D/F710Y/G298E/G324E/G362A/G483A/G678D/H329D/H417K/H573N/H596R/H691Q/K356Q/K494N/L346M/L461F/L630T/N487E/P355S/P441Q/P480A/Q479H/Q512R/R341H/R467N/R472Q/R516Q/R676Q/R816K/R819Q/R846E/S306V/S373A/S812A/T369S/T436S/T508A/T536V/V307I/V323M/V391A/V410I/V437L/V514I/V537I/V598D/V619A/V692L/V813A).
T1 construct: made in house
T1 sequence (P52026 other isoform, or with tags, fused parts or gaps with the stated changes): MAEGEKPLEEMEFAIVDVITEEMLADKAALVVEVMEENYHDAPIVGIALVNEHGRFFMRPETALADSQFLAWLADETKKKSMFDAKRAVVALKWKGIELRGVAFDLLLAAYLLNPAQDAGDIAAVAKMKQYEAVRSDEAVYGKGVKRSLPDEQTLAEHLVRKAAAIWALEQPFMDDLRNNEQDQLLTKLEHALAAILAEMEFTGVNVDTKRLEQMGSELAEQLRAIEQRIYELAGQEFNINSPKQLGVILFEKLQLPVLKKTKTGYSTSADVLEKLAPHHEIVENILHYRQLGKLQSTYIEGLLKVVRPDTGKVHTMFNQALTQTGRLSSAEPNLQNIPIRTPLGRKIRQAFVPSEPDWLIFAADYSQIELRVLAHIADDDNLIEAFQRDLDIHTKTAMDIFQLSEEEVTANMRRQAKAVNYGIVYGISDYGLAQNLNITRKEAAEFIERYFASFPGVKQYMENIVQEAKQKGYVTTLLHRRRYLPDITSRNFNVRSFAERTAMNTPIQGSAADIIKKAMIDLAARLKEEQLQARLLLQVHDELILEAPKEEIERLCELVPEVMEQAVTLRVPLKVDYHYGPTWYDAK
The experiment is classed as biochemical, Bacillus stearothermophilus. Conditions: for effect on 5′-3′ polymerization activity of the polymerase: 65° C. Here is the method: The remaining activity of Bst-II DNA polymerase (produced according to U.S. Pat. No. 6,165,765) in the presence of different concentrations of Glycerol was determined as follows:
(a) In a series of numbered 0.5 ml microcentrifuge tubes were added the following:
The mixtures above were firstly evaporated by Speed-Vacuum, then varying final concentrations of glycerol in each reaction mixture were achieved by adding an appropriate amount of a glycerol stock solution to the above microcentrifuge tubes as indicated below.
(b) All these tubes were incubated at 65° C. for 30 minutes. Then each of the reaction mixtures was pipetted onto a DE-81 filter. After all of the fluid has evaporated, the amount of radioactivity on each filter was measured with scintillation and recorded as X1. Thereafter, the filters were washed three times with 0.3 M Na2HPO4 solution at room temperature, 10 minutes each times, dried at room temperature and then the amount of radioactivity on each filter was measured again and recorded as X2. Incorporation ratio=X2/X1. [formula]

Experiment [2] concerns the target T1, Bst-II DNA polymerase. The experiment is described as follows: Low-temperature cycle primer extension with Bst-II at different glycerol concentrations (agarose gel). It is filed as biochemical, Bacillus stearothermophilus. Here is the method:
Bst-II DNA polymerase was used for the study. […]
(§1) The reaction products were run on a 1% agarose gel for electrophoresis and stained by ethidium bromide.
Four different sets of templates and primers were selected representing varying lengths of the DNA segments to be amplified:
The low temperature cycle extension was carried out as follows:
(a) To a 0.2 ml microcentrifuge tube were added.
(b) The mixture above was firstly evaporated by Speed-Vacuum, then the following were added to each microcentrifuge tube containing the evaporated reagents with different sets of template and primers to achieve a final concentration of 35% glycerol and 15% glycerol in the reaction mixture, respectively.
(c) All the microcentrifuge tubes with the reaction mixture were subjected to low temperature cycling as follows:
The reaction products were run on a 1% agarose gel for electrophoresis and stained by ethidium bromide. The reaction products from the mixture containing 35% glycerol were loaded in lane 1, and the reaction products from the mixture containing 15% glycerol were loaded in lane 2.

Experiment [3] concerns rice genome BAC B414f7. The experiment is described as follows: Low-temperature cycle extension of 17 mer and 30 mer primers with different DNA polymerases (agarose gel). It is filed as biochemical. Conditions: Bst system, 15% glycerol, 70° C./37° C./50° C., 35 cycles. The procedure:
The polymerases used were Bst-I (wild type produced according to U.S. Pat. No. 5,834,254), Bst-II, and Bca (TaKaRa Co.). The Klenow fragment (Sigma Chemical Co.) was used as a thermolabile DNA polymerase for comparison (Iakobashvili and Lapidot).
The template used was rice genome BAC B414f7.
The two pairs of primers used were: […]
The following reaction system (referred to hereafter as the Bst system) was used.
(a) In a 0.2 ml microcentrifuge tube were added:
(b) The microcentrifuge tubes were subjected to the following temperature cycling.
as §1
In addition, the method of using a reaction mixture containing 4.5 M proline and 17% glycerol in Tris-HCl buffer as recommended by Iakobashvili and Lapidot was also adopted for the reactions with Klenow fragment as the DNA polymerase (hereafter referred to as the Iakobashvili and Lapidot system). The reaction products were also run parallel to those obtained with the Bst system, and illustrated as follows in FIG. 4.

[4] abbreviates: higher concentrations (greater than about 35%).
[5] abbreviates: low concentration, not exceeding / up to about 20% (v/v).

“Also recorded” adds a separate entry of the source. Where two headings read alike, the source gives them in different places.

As for `OCCO` [ethylene glycol], the “effect on 5′-3′ polymerization activity of the polymerase” value was “detrimental inhibitory effect” in experiment [1] (setting [4]) and “increase the sequence-specific DNA polymerization activity” in experiment [1] (setting [5]).

For the molecule `OCC(O)CO` [glycerol], the “amplification products on gel” value in experiment [2] (15% glycerol, target products 250 bp to 2 Kb) is “specific amplification products”; in experiment [2] (35% glycerol, target product 1 Kb and 2 Kb), “both specific and non-specific amplification products”; in experiment [2] (35% glycerol, target product 250 bp or 400 bp) it was “no amplification products produced at all”; in experiment [2] (40% glycerol, template pBluescript(+), low or high template concentration, 70° C./45° C., 35 cycles) it was “non-specific amplification products of varying sizes”. Besides, the “loss of original polymerization activity” value in experiment [1] (glycerol 40% (v/v)) is “⅔”. Further, the “effect on 5′-3′ polymerization activity of the polymerase” value is “detrimental inhibitory effect; also recorded: invariably suppressed this enzymatic activity” in experiment [1] (setting [4]) and “increased the enzymatic activity; also recorded: increase the sequence-specific DNA polymerization activity; also recorded: increased the 5′-3′ polymerization activity” in experiment [1] (setting [5]).

B1: Bst-I: wild type, natural form of Bacillus stearothermophilus DNA polymerase (protein, UniProt P52026 1-876, looked up)
DNA polymerase I: MKNKLVLIDGNSVAYRAFFALPLLHNDKGIHTNAVYGFTMMLNKILAEEQPTHILVAFDAGKTTFRHETFQDYKGGRQQTPPELSEQFPLLRELLKAYRIPAYELDHYEADDIIGTMAARAEREGFAVKVISGDRDLTQLASPQVTVEITKKGITDIESYTPETVVEKYGLTPEQIVDLKGLMGDKSDNIPGVPGIGEKTAVKLLKQFGTVENVLASIDEIKGEKLKENLRQYRDLALLSKQLAAICRDAPVELTLDDIVYKGEDREKVVALFQELGFQSFLDKMAVQTDEGEKPLAGMDFAIADSVTDEMLADKAALVVEVVGDNYHHAPIVGIALANERGRFFLRPETALADPKFLAWLGDETKKKTMFDSKRAAVALKWKGIELRGVVFDLLLAAYLLDPAQAAGDVAAVAKMHQYEAVRSDEAVYGKGAKRTVPDEPTLAEHLVRKAAAIWALEEPLMDELRRNEQDRLLTELEQPLAGILANMEFTGVKVDTKRLEQMGAELTEQLQAVERRIYELAGQEFNINSPKQLGTVLFDKLQLPVLKKTKTGYSTSADVLEKLAPHHEIVEHILHYRQLGKLQSTYIEGLLKVVHPVTGKVHTMFNQALTQTGRLSSVEPNLQNIPIRLEEGRKIRQAFVPSEPDWLIFAADYSQIELRVLAHIAEDDNLIEAFRRGLDIHTKTAMDIFHVSEEDVTANMRRQAKAVNFGIVYGISDYGLAQNLNITRKEAAEFIERYFASFPGVKQYMDNIVQEAKQKGYVTTLLHRRRYLPDITSRNFNVRSFAERTAMNTPIQGSAADIIKKAMIDLSVRLREERLQARLLLQVHDELILEAPKEEIERLCRLVPEVMEQAVTLRVPLKVDYHYGPTWYDAK
B1: in experiment [3], the “amplification product from 17 mer and 30 mer primer extension” value is recorded as “generated specific amplification products”.

The values above are taken from patent US20030087237A1, “Low-temperature cycle extension of DNA with high polymerization specificity” (priority 2001, published 2003).
